From ChEMBL document CHEMBL1156089, “Anthranilic sulfonamide CCK1/CCK2 dual receptor antagonists I: discovery of CCKR1 selectivity in a previously CCKR2-selective lead series” (Bioorg Med Chem Lett, 2009)
pKi: −log10 of the molar value.

Legend:
[1] = molecular target: T1, Cholecystokinin receptor type A (Homo sapiens, UniProt P32238); experiment: Displacement of [125I]-CCK-8S from CCK1R after 100 mins by liquid scintillation counting
T1 sequence (P32238 whole entry): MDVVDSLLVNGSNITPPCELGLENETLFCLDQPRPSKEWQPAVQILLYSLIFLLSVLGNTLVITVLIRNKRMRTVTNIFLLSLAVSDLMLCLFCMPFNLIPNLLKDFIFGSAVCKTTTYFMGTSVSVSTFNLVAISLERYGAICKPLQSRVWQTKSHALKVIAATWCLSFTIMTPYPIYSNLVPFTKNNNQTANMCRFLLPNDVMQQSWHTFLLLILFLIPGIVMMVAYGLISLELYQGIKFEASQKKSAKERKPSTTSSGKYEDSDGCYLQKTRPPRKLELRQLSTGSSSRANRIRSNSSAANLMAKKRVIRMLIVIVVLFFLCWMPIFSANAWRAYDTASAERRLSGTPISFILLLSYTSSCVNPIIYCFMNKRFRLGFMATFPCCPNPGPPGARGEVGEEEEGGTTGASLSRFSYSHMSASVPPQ

[2] = molecular target: T2, Gastrin/cholecystokinin type B receptor (Homo sapiens, UniProt P32239); experiment: Displacement of [125I]-CCK-8S from CCK2R after 100 mins by liquid scintillation counting
T2 sequence (P32239 whole entry): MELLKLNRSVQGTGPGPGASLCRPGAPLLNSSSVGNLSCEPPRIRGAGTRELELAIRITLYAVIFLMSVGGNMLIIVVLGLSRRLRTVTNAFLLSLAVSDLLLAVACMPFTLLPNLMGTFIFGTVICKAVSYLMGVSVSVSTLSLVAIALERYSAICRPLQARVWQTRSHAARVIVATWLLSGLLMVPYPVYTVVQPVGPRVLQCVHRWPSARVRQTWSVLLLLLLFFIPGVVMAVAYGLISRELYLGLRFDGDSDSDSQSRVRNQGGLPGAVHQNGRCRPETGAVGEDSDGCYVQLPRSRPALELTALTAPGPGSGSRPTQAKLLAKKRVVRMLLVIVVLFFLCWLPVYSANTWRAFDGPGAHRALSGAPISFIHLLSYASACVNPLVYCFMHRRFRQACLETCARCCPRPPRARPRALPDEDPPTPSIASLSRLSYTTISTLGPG

O=C(NCc1ccccc1)c1ccc(Cl)cc1NS(=O)(=O)c1cccc2nsnc12
pKi [1]: < 5.00

O=C(NCCc1ccccc1)c1ccc(Br)cc1NS(=O)(=O)c1cccc2nsnc12
pKi [1]: 6.40 | pKi [2]: 6.20

O=C(N[C@@H](Cc1ccccc1)C(=O)O)c1ccc(Cl)cc1NS(=O)(=O)c1cccc2nsnc12
pKi [1]: 5.40 | pKi [2]: 7.10

O=C(N[C@H](C(=O)O)C(c1ccc(Cl)cc1)c1ccc(Cl)cc1)c1ccc(Cl)cc1NS(=O)(=O)c1cccc2nsnc12
pKi [1]: < 5.00

O=C(NCCc1ccccc1)c1ccc(Cl)cc1NS(=O)(=O)c1cccc2nsnc12
pKi [1]: 6.80 | pKi [2]: 5.20

O=C(N[C@H](Cc1ccc(Cl)cc1)C(=O)O)c1ccc(Cl)cc1NS(=O)(=O)c1cccc2nsnc12
pKi [1]: 6.50 | pKi [2]: 6.20

C[C@H](c1ccc(Cl)c(Cl)c1)[C@@H](NC(=O)c1ccc(Cl)cc1NS(=O)(=O)c1cccc2nsnc12)C(=O)O
pKi [1]: 6.70 | pKi [2]: 5.80

O=C(N[C@H](Cc1ccccc1)C(=O)O)c1ccc(Cl)cc1NS(=O)(=O)c1cccc2nsnc12
pKi [1]: 5.50 | pKi [2]: 6.80

O=C(NCCc1ccc(Cl)c(Cl)c1)c1ccc(Cl)cc1NS(=O)(=O)c1cccc2nsnc12
pKi [1]: 7.10 | pKi [2]: 5.10

CC(C)(c1ccc(Cl)cc1)[C@H](NC(=O)c1ccc(Cl)cc1NS(=O)(=O)c1cccc2nsnc12)C(=O)O
pKi [2]: 6.00

O=C(NCCc1ccc(Cl)cc1)c1ccc(Cl)cc1NS(=O)(=O)c1cccc2nsnc12
pKi [1]: 6.00 | pKi [2]: < 5.00

CN(CCc1ccccc1)C(=O)c1ccc(Cl)cc1NS(=O)(=O)c1cccc2nsnc12
pKi [1]: 5.40 | pKi [2]: 6.50

O=C(NCCCc1ccccc1)c1ccc(Cl)cc1NS(=O)(=O)c1cccc2nsnc12
pKi [1]: 5.70 | pKi [2]: 6.00

O=C(NCC(c1ccc(Cl)cc1)c1ccc(Cl)cc1)c1ccc(Cl)cc1NS(=O)(=O)c1cccc2nsnc12
pKi [2]: < 5.00

O=C(N[C@@H](Cc1ccc(Cl)cc1)C(=O)O)c1ccc(Cl)cc1NS(=O)(=O)c1cccc2nsnc12
pKi [1]: 5.70 | pKi [2]: 7.20

CC(CNC(=O)c1ccc(Cl)cc1NS(=O)(=O)c1cccc2nsnc12)c1ccc(Cl)cc1 (racemic)
pKi [1]: 7.00
